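Results reflect a 48-hour exposure of cells in 96-well plates to compound at five concentrations. GI50 is the concentration that inhibits growth by half. Definition used: TGI = concentration required for complete inhibition of growth.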 The source made the active and inactive calls. Cut-off read from the data, not from the text of the source: active = GI50 below about 0.43 µM; inactive = the rest.
Legend:
Test in all cases: NCI-60 cell line screen, 48 h
SNB-78 CNS = tested on: SNB-78 CNS
HOP-18 NSCLC = tested on: HOP-18 NSCLC
NCI/ADR-RES ovarian = tested on: NCI/ADR-RES ovarian
UACC-257 melanoma = tested on: UACC-257 melanoma
KM12 colon = tested on: KM12 colon
COLO 205 colon = tested on: COLO 205 colon
OVCAR-4 ovarian = tested on: OVCAR-4 ovarian
TK-10 renal = tested on: TK-10 renal
BT-549 breast = tested on: BT-549 breast

| SMILES | TGI (SNB-78 CNS) [µM] | TGI (HOP-18 NSCLC) [µM] | TGI (NCI/ADR-RES ovarian) [µM] | TGI (UACC-257 melanoma) [µM] | TGI (KM12 colon) [µM] | TGI (COLO 205 colon) [µM] | TGI (OVCAR-4 ovarian) [µM] | TGI (TK-10 renal) [µM] | TGI (BT-549 breast) [µM] | GI50 (NCI/ADR-RES ovarian) [µM] | GI50 (UACC-257 melanoma) [µM] | GI50 (KM12 colon) [µM] | GI50 (COLO 205 colon) [µM] | GI50 (OVCAR-4 ovarian) [µM] | GI50 (TK-10 renal) [µM] | outcome (NCI/ADR-RES ovarian) | outcome (UACC-257 melanoma) | outcome (OVCAR-4 ovarian) | outcome (TK-10 renal) |
| --- | --- | --- | --- | --- | --- | --- | --- | --- | --- | --- | --- | --- | --- | --- | --- | --- | --- | --- | --- |
| Cc1ccc(C#CS(=O)(=O)C(F)(F)F)cc1 | > 100 | > 100 | > 100 | > 100 | > 100 | > 100 | > 100 |  |  |  |  |  |  |  |  |  |  |  |  |
| NCCS(=O)(=O)O |  |  | > 100 | > 100 | > 100 | > 100 |  | > 100 |  |  |  |  |  |  |  |  |  |  |  |
| CC(=O)c1[nH]c(Nc2ccc(C)cc2)c(C(=S)Nc2ccccc2)c1N |  |  | 89.4 | 36.5 | 34.8 | > 100 | 54.9 | 35.5 | 31.6 |  |  |  |  |  |  |  |  |  |  |
| O=Cc1c(Br)[nH]c2ccccc12 | > 100 | > 100 | > 100 | 77.7 | > 100 | > 100 | > 100 |  |  |  |  |  |  |  |  |  |  |  |  |
| O=C(c1ccccc1O)c1cc(-c2ncc3c(=O)c4ccccc4oc3n2)c(-c2ccccc2O)[nH]c1=O | > 88.1 | > 100 | > 87.6 | 47.1 | > 80 | > 100 | 83.5 |  |  |  |  |  |  |  |  |  |  |  |  |
| N#Cc1ccc(C2Oc3ccc(Cl)cc3C=C2[N+](=O)[O-])cc1 (stereo not given) |  |  | > 100 | 6.75 | 3.81 | 1.87 | 3.45 | 3.38 | 1.13 |  |  |  |  |  |  |  |  |  |  |
| O=C(Nc1ccc(Sc2ccc(N=Nc3c(O)c(S(=O)(=O)O)cc4cc(S(=O)(=O)O)ccc34)cc2)cc1)c1ccc(N=Nc2c(O)c(S(=O)(=O)O)cc3cc(S(=O)(=O)O)ccc23)cc1 | > 100 | 79.7 |  | > 100 | > 100 | 40.2 | > 100 | > 100 |  |  |  |  |  |  |  |  |  |  |  |
| C[N+]1([O-])[C@H]2CC(OC(=O)[C@H](CO)c3ccccc3)C[C@H]1[C@H]1O[C@H]12 (stereo not given in full) |  |  | > 100 | > 100 | > 100 | > 100 | > 100 | > 100 | > 100 |  |  |  |  |  |  |  |  |  |  |
| COc1ccc([C@H]2c3cc4c(cc3OC(O)(CO)[C@H]2C(=O)O)OCO4)c(OC)c1 (stereo not given in full) (tested in a mixture with another compound) | > 100 | > 100 |  | > 100 | > 100 | > 100 | > 100 | > 100 |  |  |  |  |  |  |  |  |  |  |  |
| CCOC(=O)C1=C(c2ccccc2)C12N(Cc1ccccc1)C(=O)C2(c1ccccc1)c1ccccc1 (stereo not given) |  |  |  | > 100 | > 100 | 60.1 |  | > 100 | > 100 |  |  |  |  |  |  |  |  |  |  |
| O=NN1C(c2ccccc2)CCCC1c1ccccc1 (stereo not given) | > 100 | > 100 | > 100 | > 100 | > 100 | > 100 | > 100 |  |  |  |  |  |  |  |  |  |  |  |  |
| COc1cc(/C(=C2/O[C@@H]([C@H]3COC(C)(C)O3)[C@H]3OC(C)(C)O[C@@H]23)c2ccc3c(c2)OCO3)cc(OC)c1OC |  |  | > 25 | > 25 | > 25 | > 25 | > 25 | > 25 |  | > 25 | > 25 | > 25 | > 25 | 8.81 | > 25 |  |  |  |  |
| O=P(O)(O)CN1CCNCCN(CP(=O)(O)O)CCN(CP(=O)(O)O)CCNCC1 |  |  |  |  |  |  |  |  |  |  |  |  |  |  |  | inactive | inactive | inactive | inactive |
| O=C1c2cc3c(cc2CC1Cc1ccc2c(c1)CCC2)CCC3 (stereo not given) |  |  | > 100 | > 100 | > 100 | 52.2 | > 100 | > 100 | > 100 |  |  |  |  |  |  |  |  |  |  |
| O=C(c1ccccc1)c1c(C(F)(F)F)n([O-])c2cc(F)c(F)cc2[n+]1=O |  |  | 1.63 | 3.76 | 3.9 | > 69.6 | > 100 | 0.816 |  |  |  |  |  |  |  |  |  |  |  |
| O=C(CSCC(=O)N/N=C\c1ccccc1F)N/N=C\c1ccccc1F |  |  | 63.1 | > 100 | > 100 | > 100 | > 100 | > 100 |  |  |  |  |  |  |  |  |  |  |  |
| CCCCOc1ccc2c(c1)CC[C@@H]1[C@@H]2CC[C@]2(C)C(=O)N(CCCC)C(=O)C[C@@H]12 |  |  | > 100 |  | > 100 | > 100 |  |  | > 100 |  |  |  |  |  |  |  |  |  |  |
| COc1cc(-c2nc3cc(Cl)c(Cl)cc3[nH]2)ccc1OCC(=O)N=Nc1c(O)[nH]c2ccc(Cl)cc12 |  |  | > 100 |  |  | 1.22 | > 100 | > 100 |  | > 100 |  |  | 0.344 | 0.403 | 2.53 |  |  |  |  |
